The text below walks through data of US20090209638A1, “TREATMENT FOR DEPRESSIVE DISORDERS” (priority 2006, published 2009).

One data set concerns cerebellar cGMP. The experiment in a line: Stress-induced cerebellar cGMP elevation. Type of data set: in vivo, Rats. The following applies: for activity in the stress-induced cGMP assay: data not shown, levels similar to what was observed for MA-1. Here is the method: Protocol: Animals were placed into a shock chamber with a steel grid floor and shocked at 1 mA for 10 seconds. One minute following the stressor, the animals were placed into a plastic restraint tube and sacrificed by microwave irradiation (1.8 sec at 3.5 kW). The cerebellum was rapidly removed, snap frozen, and stored at −80° C. prior to the cGMP assay. Non-stressed animals were taken directly from their cages and sacrificed by microwave irradiation and tissues were processed in a similar manner. Drug dosing was performed 30-60 min prior to foot-shock stress. For the cGMP assay, the tissue was homogenized in 2 ml of 1% perchloric acid using a Brinkman Polytron at setting #5 for ˜15 sec each and placed on ice until all samples were homogenized. Samples were then placed in an 85C water bath for 5 min, centrifuged at 2500G for 15 min, and ˜0.5 ml of the supernatant was collected for analysis. Supernatants were diluted 1:20 in sodium acetate buffer according to the directions of the manufacturer of the 1251-cGMP flashplates. Diluted samples were incubated overnight in flashplate wells with 1251-cGMP, assayed on a gamma-counter plate reader, and converted to pmol cGMP/mg tissue using a standard curve generated in the same experiment.

The subject of data set [1] is Rats. The experiment in a line: Rat Forced Swim Test (behavioral despair test). Type of data set: in vivo. The following applies: for decrease in immobility time: dark phase. How it is done: Protocol: Animals were tested in the forced swim test using the protocol originally described by Porsolt et al (Eur. J. Pharmacol., 47, 379-391,1978). Rats were individually placed in a cylinder (Height=40 cm, Diameter=20 cm) containing 13 cm water (25° C.) for 15 minutes on the first day of the experiment (Session 1) and were then put back in the water 24 hours later for a 5 minute test (Session 2). The duration of immobility during the 5 minute test was measured. Six rats were studied per group. The test was performed blind. Session 1 and Session 2 were performed either during the light cycle, i.e. between 2.5 and 5.5 hours after lights-on, or during the dark cycle, i.e. between 2.5 and 5.5 hours after lights-off. The tests during the light cycle were therefore performed between 9:30 am and 12:30 pm, whereas the tests during the dark cycle, because of the light cycle shift, were performed between 14:30 pm and 17:30 pm.
To permit the 2 phases of the experiment (light phase and dark phase) to be performed on the same day by the same laboratory technician, the animals to be tested during the dark phase were submitted to a light cycle shift 12 days prior to the first session of the forced swim test whereby the light/dark cycle was advanced 7 hours (lights-on: 0:00 am, lights-off: 12:00 pm). The 12-day period was estimated to be sufficient for the dark-cycle animals to adjust to the shift. To habituate the rats to the light cycle shift, the dark-cycle animals were submitted to the shift 12 days prior to Session 1. To ensure otherwise similar conditions between the light-cycle and dark-cycle animals, all animals to be used in the experiment were from the same delivery batch and were placed in their experimental living cages at the same time, i.e. 12 days before Session 1.
Testing during the light phase was performed under normal laboratory illumination, and testing during the dark phase was performed under infrared illumination. MA-1, agomelatine, and melatonin were evaluated at 2 oral (p.o.) doses each, administered twice (24 hours and 1 hour before Session 2). The first administration was given immediately after Session 1. Imipramine (64 mg/kg p.o.), administered twice under the same experimental conditions, was used as reference substance.

The test system of a further data set is Mice. The experiment in a line: Mouse Forced Swim Test. Type of data set: in vivo. Here is the method:
Protocol: Animals were maintained on a 12:12 LD cycle with lights on at 0600 h. Mice were placed into the testing room at least 1 h prior to the start of the test. Vehicle, amitriptyline and MA-1 were administered under one of three conditions: A) acute treatment, animals dosed 30 minutes prior to testing; B) 4 day subchronic AM treatment, with dosing occurring during the early morning period (0900-1100 h), with the final dose occurring 30 min prior to testing; and C) subchronic PM treatment with dosing occurring during the evening period (1730-1800 h, right before lights off), and the forced swim test took place the following morning. Animals were tested in the forced swim test using a modification of the protocol originally described by Porsolt et al. (1978). Mice were placed into 1 L beakers (KIMAX #14005) filled with 800 ml of water (20-22° C.) for a 7 min swim period. Animals were only scored for the last 5 minutes of the test and were assigned either a “0” if they were actively swimming or “1” if they were immobile, except for small movements needed to keep afloat. During the 5 minute scoring period, there are ten 30 sec intervals scored for a total possible score of 0-10 for each mouse. Data was reported as median (interquartile range). Each study was run independently with separate groups of naive mice. Data were analyzed using Statview (SAS, Cary, N.C.) with a Kruskal-Wallis analysis, followed by Mann-Whitney U-test with the significance level set at p<0.05.

Data set [2] concerns the target T1, Melatonin-2 (MT2) receptor (Homo sapiens, UniProt P49286).
T1 sequence (P49286 1-362): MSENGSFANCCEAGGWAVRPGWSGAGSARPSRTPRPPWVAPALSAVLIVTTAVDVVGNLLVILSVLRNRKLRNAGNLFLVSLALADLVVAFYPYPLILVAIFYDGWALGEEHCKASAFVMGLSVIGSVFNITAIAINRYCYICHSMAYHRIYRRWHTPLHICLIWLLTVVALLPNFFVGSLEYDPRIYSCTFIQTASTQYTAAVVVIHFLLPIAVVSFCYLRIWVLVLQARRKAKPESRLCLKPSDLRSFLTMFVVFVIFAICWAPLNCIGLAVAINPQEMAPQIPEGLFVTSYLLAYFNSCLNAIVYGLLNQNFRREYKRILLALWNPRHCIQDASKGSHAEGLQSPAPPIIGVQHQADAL
The following applies: cited from earlier work.

The test system of data set [3] is Rats. The experiment in a line: Modified forced swim test in rats (study not reported). Type of data set: in vivo, rat. The following applies: 5 mg/kg and 10 mg/kg.
The next data set in a line: Solubility of MA-1. Type of data set: physicochemical.
For data set [4], the target named is Melatonin-1 (MT1) receptor (Homo sapiens, UniProt P48039). The following applies: cited from earlier work.
Where [5] appears, read: dark cycle, 10 mg/kg p.o. −24 h and −60 min.
Setting [6] is: dark cycle, 50 mg/kg p.o. −24 h and −60 min.
[7] abbreviates: light cycle, 10 mg/kg p.o. −24 h and −60 min.
The mark [8] stands for this setting: light cycle, 50 mg/kg p.o. −24 h and −60 min.
[9] abbreviates: condition A: acute treatment, testing 30 minute post-dose.
The mark [10] stands for this setting: condition B: 4-day sub-chronic AM dosing, testing 30 minutes following final dose.
Where [11] appears, read: condition C: 4-day sub-chronic PM dosing, testing the following morning.
Setting [12] is: dark cycle, 64 mg/kg p.o. −24 h and −60 min.
Setting [13] is: light cycle, 64 mg/kg p.o. −24 h and −60 min.
[14] abbreviates: dark cycle, 1 mg/kg p.o. −24 h and −60 min.
[15] abbreviates: light cycle, 1 mg/kg p.o. −24 h and −60 min.

Sequence of Melatonin-1 (MT1) receptor (P48039 whole entry): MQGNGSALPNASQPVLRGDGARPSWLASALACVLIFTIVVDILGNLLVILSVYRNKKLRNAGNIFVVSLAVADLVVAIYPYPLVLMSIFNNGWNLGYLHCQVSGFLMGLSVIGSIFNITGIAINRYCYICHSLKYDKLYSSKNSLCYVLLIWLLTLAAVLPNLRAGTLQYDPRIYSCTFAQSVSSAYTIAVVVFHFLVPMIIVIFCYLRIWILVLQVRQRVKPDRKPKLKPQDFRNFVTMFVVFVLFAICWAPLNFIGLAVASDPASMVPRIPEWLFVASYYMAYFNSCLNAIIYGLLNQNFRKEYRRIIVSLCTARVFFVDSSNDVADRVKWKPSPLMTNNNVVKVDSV

As to `COc1ccc2cccc(CCNC(C)=O)c2c1` [agomelatine], the “activity in the stress-induced cGMP assay” value in the data set with cerebellar cGMP was “shown activity”. Further, the “DURATION OF IMMOBILITY % change from control” value in the data set on Rats [1] (setting [5]) was −60%; in the data set with Rats [1] (setting [6]), −33%; in the data set with Rats [1] (setting [7]), −42%; with Rats [1] (setting [8]) it was “+13%”. Also, the “DURATION OF IMMOBILITY mean ± s.e.m.” value in the data set on Rats [1] (setting [5]) is on record as 84.8 ± 8.2 s; in the data set on Rats [1] (setting [6]), 140.2 ± 19.1 s; in the data set on Rats [1] (setting [7]) it was 97.8 ± 13.5 s; in the data set with Rats [1] (setting [8]), 191.0 ± 9.4 NS s. Besides, the “decrease in immobility time” value is 60% with Rats [1] (10 mg/kg) and 33% with Rats [1] (50 mg/kg).

Turning to `CN(C)CCC=C1c2ccccc2CCc2ccccc21` [Amitriptyline], the “activity in mouse forced swim model” value in the data set with Mice (setting [9]) is “active”; in the data set with Mice (setting [10]) it was “active”; with Mice (setting [11]) it was “did not show activity”.

For `COc1ccc2[nH]cc(CCNC(C)=O)c2c1` [Melatonin, melatonin], in the data set on cerebellar cGMP, the “activity in the stress-induced cGMP assay” value is recorded as “shown activity”. The “DURATION OF IMMOBILITY % change from control” value was −37% in the data set on Rats [1] (setting [5]), −21% with Rats [1] (setting [6]), −40% in the data set with Rats [1] (setting [7]) and 0% in the data set on Rats [1] (setting [8]). Also, the “DURATION OF IMMOBILITY mean ± s.e.m.” value was 132.8 ± 16.5 s in the data set with Rats [1] (setting [5]), 166.8 ± 16.6 s with Rats [1] (setting [6]), 101.3 ± 18.8 s with Rats [1] (setting [7]) and 167.7 ± 10.8 NS s in the data set on Rats [1] (setting [8]).

Consider `CN(C)CCCN1c2ccccc2CCc2ccccc21` [Imipramine], for which, in the data set with Rats [1] (setting [12]), the “DURATION OF IMMOBILITY % change from control” value is given as −70% and the “DURATION OF IMMOBILITY mean ± s.e.m.” value was determined as 63.0 ± 11.1 s. In addition, in the data set with Rats [1] (setting [13]), the “DURATION OF IMMOBILITY % change from control” value is listed as −71% and the “DURATION OF IMMOBILITY mean ± s.e.m.” value was 49.5 ± 10.6 s.

With `CCC(=O)NC[C@@H]1C[C@H]1c1cccc2c1CCO2` [MA-1, (1R-trans)-N-[[2-(2,3-dihydro-4-benzofuranyl)cyclopropyl]methyl]propanamide], the affinity entry in data set [2] and in data set [4] was “high affinity” in each case. Also, the “activity in mouse forced swim model” value with Mice (setting [9]), in the data set on Mice (setting [10]) and with Mice (setting [11]) was “did not demonstrate activity” each time. Moreover, in the data set with Rats [3], the “effects on immobility, swimming, or climbing statistically different from vehicle” value is “did not show effects”. Besides, the “effect of pH on aqueous solubility” value in “Solubility of MA-1” is recorded as “practically unaffected by pH”. For the same compound, the solubility entry in the data set “Solubility of MA-1” (in 95% ethanol, methanol, acetonitrile, ethyl acetate, isopropanol, polyethylene glycols (PEG-300 and PEG-400)) is recorded as “very soluble or freely soluble”; in the data set “Solubility of MA-1” (in water), “only slightly soluble”. The “native pH of a saturated solution in water” value in “Solubility of MA-1” (saturated solution in water) was 8.5. Besides, the “attenuation of shock-induced increase in cerebellar cGMP levels” value in the data set on cerebellar cGMP (rats, electric shock 1 mA 10 s, doses of 0.1-10 mg/kg, dosed 30-60 min prior to foot-shock, no dose-responsiveness) is given as approximately 50%. The “DURATION OF IMMOBILITY % change from control” value with Rats [1] (setting [14]) is −37%; in the data set on Rats [1] (setting [5]), −41%; in the data set on Rats [1] (setting [15]), −14%; in the data set with Rats [1] (setting [7]), −25%. Further, the “DURATION OF IMMOBILITY mean ± s.e.m.” value with Rats [1] (setting [14]) is reported as 133.0 ± 6.6 s; in the data set with Rats [1] (setting [5]), 124.8 ± 18.8 s; with Rats [1] (setting [15]), 145.3 ± 26.0 NS s; in the data set on Rats [1] (setting [7]), 126.3 ± 26.9 NS s. The “decrease in immobility time” value with Rats [1] (1 mg/kg) was found to be 37%; in the data set with Rats [1] (10 mg/kg), 41%.
